The term IC50 denotes the concentration at which inhibition is half-maximal.

These results are taken from ChEMBL document CHEMBL3421629, “Pyrazole phenylcyclohexylcarbamates as inhibitors of human fatty acid amide hydrolases (FAAH)” (Eur J Med Chem, 2015).

Assay [1] deals with T1, Fatty-acid amide hydrolase 1 (Homo sapiens, UniProt O00519).
T1 sequence (O00519 whole entry): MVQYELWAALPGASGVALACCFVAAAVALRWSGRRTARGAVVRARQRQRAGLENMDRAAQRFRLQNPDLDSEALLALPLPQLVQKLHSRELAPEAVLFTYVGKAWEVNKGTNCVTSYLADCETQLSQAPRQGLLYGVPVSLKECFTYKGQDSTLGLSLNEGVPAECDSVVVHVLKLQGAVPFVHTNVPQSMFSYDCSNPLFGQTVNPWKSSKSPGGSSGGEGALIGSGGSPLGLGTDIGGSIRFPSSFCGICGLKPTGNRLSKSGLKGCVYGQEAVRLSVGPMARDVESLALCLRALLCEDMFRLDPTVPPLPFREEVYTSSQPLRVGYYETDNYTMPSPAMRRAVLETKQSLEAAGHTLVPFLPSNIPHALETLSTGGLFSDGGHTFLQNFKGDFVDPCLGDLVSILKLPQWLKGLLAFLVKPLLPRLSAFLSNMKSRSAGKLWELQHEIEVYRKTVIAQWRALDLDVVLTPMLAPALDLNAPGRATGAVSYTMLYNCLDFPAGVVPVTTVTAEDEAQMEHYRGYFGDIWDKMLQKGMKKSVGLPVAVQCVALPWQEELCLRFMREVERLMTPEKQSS
Description: Inhibition of human recombinant FAAH using AMC arachidonoyl amide as substrate after 30 mins by fluorescence assay.

Another assay is filed under the species Homo sapiens. Nature of the assay: Selectivity index, ratio of IC50 for human recombinant MAGL to IC50 for human recombinant FAAH.
The target of another assay is T2, Monoglyceride lipase (Homo sapiens, UniProt Q99685).
T2 sequence (Q99685 whole entry): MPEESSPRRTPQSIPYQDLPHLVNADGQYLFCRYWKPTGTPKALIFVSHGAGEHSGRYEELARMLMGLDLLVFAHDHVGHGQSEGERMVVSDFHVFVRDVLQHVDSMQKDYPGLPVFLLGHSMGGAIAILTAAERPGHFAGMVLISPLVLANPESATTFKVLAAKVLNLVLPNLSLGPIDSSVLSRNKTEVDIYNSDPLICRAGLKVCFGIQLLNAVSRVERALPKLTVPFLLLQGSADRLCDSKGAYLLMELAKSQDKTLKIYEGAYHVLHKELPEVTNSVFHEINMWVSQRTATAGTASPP
Nature of the assay: Inhibition of human recombinant MAGL using 4-nitrophenylacetate as substrate after 30 mins.

Assay [2] has as its target T1, Fatty-acid amide hydrolase 1. Description: Inhibition of human recombinant FAAH using AMC arachidonoyl amide as substrate preincubated with protein for 60 mins followed by substrate addition by fluorescence assay.
The target is the same in assay [3]. Description: Inhibition of human recombinant FAAH using AMC arachidonoyl amide as substrate preincubated with protein for 30 mins followed by substrate addition by fluorescence assay.
The target is the same in assay [4]. Nature of the assay: Inhibition of human recombinant FAAH using AMC arachidonoyl amide as substrate preincubated with protein for 0 min followed by substrate addition by fluorescence assay.

Regarding `CCOC(=O)c1cc(-c2cccc(OC(=O)NC3CCCCC3)c2)n(C)n1`, the concentration for half-maximal inhibition (IC50) in assay [1] is 303 nM.

As for `O=C(NC1CCCCC1)Oc1cccc(-c2cc(C(=O)O)nn2-c2ccccc2)c1`, in assay [1], the 50% inhibitory concentration (IC50) came out at 2270 nM.

`CCOC(=O)c1cc(-c2ccc(OC(=O)NC3CCCCC3)cc2)n(-c2ccccc2)n1`: the IC50 in assay [1] amounted to 268 nM.

Turning to `CCOC(=O)c1cc(-c2cccc(OC(=O)NC3CCCCC3)c2)n(-c2ccc(OC)cc2)n1`, the half-maximal inhibitory concentration (IC50) in assay [1] is 103 nM.

As for `CCOC(=O)c1cc(-c2ccc(OC(=O)NC3CCCCC3)cc2)nn1CC`, in assay [1], the IC50 worked out at 603 nM.

`CCOC(=O)c1cc(-c2cccc(OC(=O)NC3CCCCC3)c2)n(Cc2ccccc2)n1`: the IC50 in assay [1] came to 70 nM.

Regarding `CCCCCCNC(=O)Oc1cccc(-c2cc(C(=O)OCC)nn2-c2ccccc2)c1`, the IC50 in assay [1] was 88 nM.

Take `CCOC(=O)c1cc(-c2ccc(OC(=O)NC3CCCCC3)cc2)n(-c2ccc(Cl)cc2)n1`: in assay [1], the IC50 came out at 281 nM.

Turning to `COC(=O)c1cc(-c2cccc(OC(=O)NC3CCCCC3)c2)n(-c2ccccc2)n1`, the concentration for half-maximal inhibition (IC50) worked out at 18 nM in assay [1] and 49000 nM at Monoglyceride lipase. The Ratio IC50 in the assay listed under Homo sapiens was 2750.

On to `CCOC(=O)c1cc(-c2ccc(OC(=O)NC3CCCCC3)cc2)n(CC)n1`, for which the IC50 in assay [1] is 214 nM.

As for `NC(=O)c1cc(-c2ccc(OC(=O)NC3CCCCC3)cc2)n(-c2ccc(Cl)cc2)n1`, the IC50 in assay [1] came out at 172 nM.

For the molecule `O=C(NC1CCCCC1)Oc1cccc(-c2cc(C(=O)NC3CCCCC3)nn2-c2ccccc2)c1`, the IC50 in assay [1] stood at 288 nM.

For `CCOC(=O)c1cc(-c2cccc(OC(=O)NC3CCCCC3)c2)n(-c2ccc(Cl)cc2Cl)n1`, the concentration for half-maximal inhibition (IC50) in assay [1] was found to be 123 nM.

In the case of `CCOC(=O)c1cc(-c2cccc(OC(=O)NC3CCCCC3)c2)nn1-c1ccccc1`, the IC50 in assay [1] came out at 539 nM.

Turning to `CC(C)NC(=O)c1cc(-c2cccc(OC(=O)NC3CCCCC3)c2)n(-c2ccccc2)n1`, in assay [1], the IC50 was found to be 232 nM.

Consider `CCOC(=O)c1cc(-c2cccc(OC(=O)NC3CCCCC3)c2)n(-c2ccccc2)n1`, for which the figures for the IC50 (in assay [1]; on Monoglyceride lipase) were 11 nM and 21000 nM, respectively. Also, in the assay listed under Homo sapiens, the Ratio IC50 came out at 1840.

Consider `CCOC(=O)c1cc(-c2ccc(OC(=O)NC3CCCCC3)cc2)nn1C`, for which the IC50 in assay [1] is 316 nM.

Consider `CCOC(=O)c1cc(-c2cccc(OC(=O)NC3CCCCC3)c2)n(CC)n1`, for which the concentration for half-maximal inhibition (IC50) in assay [1] came to 101 nM.

As for `CCOC(=O)c1cc(-c2cccc(OC(=O)NC3CCCCC3)c2)nn1CC`, the half-inhibitory concentration (IC50) in assay [1] stood at 507 nM.

On to `NC(=O)c1cc(-c2cccc(OC(=O)NC3CCCCC3)c2)n(-c2ccccc2)n1`, for which the 50% inhibitory concentration (IC50) in assay [1] was determined as 169 nM.

In the case of `CCCCCCNC(=O)Oc1cccc(-c2cc(C(=O)OCCC)nn2-c2ccccc2)c1`, in assay [1], the half-inhibitory concentration (IC50) amounted to 101 nM.

On to `CCOC(=O)c1cc(-c2cccc(OC(=O)NC3CCCCC3)c2)nn1-c1ccc(OC)cc1`, for which the IC50 in assay [1] was determined as 407 nM.

As for `CCOC(=O)c1cc(-c2ccc(OC(=O)NC3CCCCC3)cc2)n(C)n1`, the IC50 in assay [1] stood at 81 nM.

In the case of `COc1ccc(-n2nc(C(N)=O)cc2-c2cccc(OC(=O)NC3CCCCC3)c2)cc1`, the IC50 in assay [1] was determined as 743 nM.

On to `CCCOC(=O)c1cc(-c2cccc(OC(=O)NC3CCCCC3)c2)n(-c2ccccc2)n1`, for which the IC50 in assay [1] was 27 nM; at Monoglyceride lipase, 38000 nM. Further, the Ratio IC50 in the assay listed under Homo sapiens came out at 1380.

With `NC(=O)c1cc(-c2cccc(OC(=O)NC3CCCCC3)c2)n(-c2ccc(Cl)cc2)n1`, the IC50 in assay [1] is 174 nM.

On to `CCOC(=O)c1cc(-c2cccc(OC(=O)NC3CCCCC3)c2)n(-c2ccc([N+](=O)[O-])cc2)n1`, for which, in assay [1], the IC50 is 78 nM.

Take `NC(=O)c1cc(-c2ccc(OC(=O)NC3CCCCC3)cc2)n(-c2ccccc2)n1`: the IC50 in assay [1] was determined as 71 nM.

For the molecule `CCOC(=O)c1cc(-c2ccc(OC(=O)NC3CCCCC3)cc2)nn1-c1ccc(Cl)cc1`, the IC50 in assay [1] stood at 586 nM.

As to `CCOC(=O)c1cc(-c2cccc(OC(=O)NC3CCCCC3)c2)n(-c2ccc(C(F)(F)F)cc2)n1`, the IC50 in assay [1] came to 132 nM.

For the molecule `Cn1nc(C(N)=O)cc1-c1ccc(OC(=O)NC2CCCCC2)cc1`, in assay [1], the IC50 is 209 nM.

Consider `CCOC(=O)c1cc(-c2cccc(OC(=O)NC3CCCCC3)c2)n(-c2ccc(C)cc2)n1`, for which the IC50 was found to be 29 nM in assay [1] and 34000 nM on Monoglyceride lipase. Besides, in the assay filed under Homo sapiens, the Ratio IC50 came out at 1190.

Take `CCOC(=O)c1cc(-c2cccc(OC(=O)NC3CCCCC3)c2)n(-c2ccc(Cl)cc2)n1`: the IC50 was found to be 18 nM in assay [2]; 17 nM in assay [3]; 15 nM in assay [4]; 17 nM in assay [1]; 83000 nM at Monoglyceride lipase. In addition, the Ratio IC50 in the assay filed under Homo sapiens worked out at 4900.

For the molecule `COc1nn(-c2ccc(NC(=O)OCc3ccccc3)c(C)c2)c(=O)o1`, the IC50 in assay [2] amounted to 1.9 nM; in assay [3], 3.5 nM; in assay [4], 13 nM; in assay [1], 14 nM.

Regarding `CCOC(=O)c1cc(-c2ccc(OC(=O)NC3CCCCC3)cc2)nn1-c1ccccc1`, the IC50 in assay [1] came out at 592 nM.

For `CCN(CC)C(=O)c1cc(-c2cccc(OC(=O)NC3CCCCC3)c2)n(-c2ccccc2)n1`, the IC50 in assay [1] came to 448 nM.

Regarding `CCOC(=O)c1cc(-c2cccc(OC(=O)NC3CCCCC3)c2)nn1C`, the half-inhibitory concentration (IC50) in assay [1] came to 227 nM.

For `O=C(NC1CCCCC1)Oc1cccc(-c2cc(CO)nn2-c2ccccc2)c1`, the IC50 in assay [1] was determined as 462 nM.

On to `CCOC(=O)c1cc(-c2ccc(OC(=O)NC3CCCCC3)cc2)nn1-c1ccc(OC)cc1`, for which, in assay [1], the IC50 is 159 nM.

With `CCOC(=O)c1cc(-c2cccc(OC(=O)NC3CCCCC3)c2)nn1-c1ccc(Cl)cc1`, the IC50 in assay [1] was found to be 353 nM.
